Results on two compounds are retold here after publication PMC12263422, “Cryo-EM structure of the human THIK-1 K2P K^+ channel reveals a lower Y gate regulated by lipids and anesthetics” (Nature Structural & Molecular Biology, 2025).

Positions count from the first letter of the chain named. Values joined by “and” are separate entries in the source; they are usually repeats but may differ in a detail not shown here. Identical values can stand only once. Like-named read-outs stand apart in the source and are kept apart here.

The target of one assay is T1, THIK-1 T110A (Homo sapiens, UniProt Q9HB14, T110A).
T1 construct: expressed in transfected cells; host or cells: Xenopus oocytes (mRNA injection)
T1 sequence (Q9HB14 1-408 T110A): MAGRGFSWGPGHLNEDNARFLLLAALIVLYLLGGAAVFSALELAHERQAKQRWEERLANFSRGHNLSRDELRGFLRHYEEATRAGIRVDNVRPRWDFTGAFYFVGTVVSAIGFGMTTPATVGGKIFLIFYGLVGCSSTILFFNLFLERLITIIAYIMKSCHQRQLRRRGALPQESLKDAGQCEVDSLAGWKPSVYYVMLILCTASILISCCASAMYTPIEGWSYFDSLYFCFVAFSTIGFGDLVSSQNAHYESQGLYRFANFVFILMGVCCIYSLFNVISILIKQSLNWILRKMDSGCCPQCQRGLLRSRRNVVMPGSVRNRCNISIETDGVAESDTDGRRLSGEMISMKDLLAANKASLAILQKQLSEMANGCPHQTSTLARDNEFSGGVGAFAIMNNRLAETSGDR
Nature of the assay: Inside-out excised patch recordings, oocytes, THIK-1 T110A mutant. In kind it is cell-based. The text has this:
(§1) Human K2P13.1 THIK-1 (GenBank accession number: NM_022054) and human K2P12.1 THIK-2 (NM_022055.1) were used in this study. For functional expression studies, the respective K^+ channel subtype coding sequences were subcloned into the oocyte expression vector pSGEM or the dual-purpose expression vector pFAW[41] and verified by sequencing. All mutant channels were obtained by site-directed mutagenesis and verified by sequencing. To increase surface expression and macroscopic currents, measurements of THIK-2 channels used a mutated ER retention motif, (R11A R12A R14A R15A R16A; THIK-2*)[20]. Vector DNA was linearized with NheI or MluI, and mRNA was synthesized in vitro using the SP6 or T7 AmpliCap Max High Yield Message Maker Kit (Cellscript, USA) or HiScribe T7 ARCA mRNA Kit (New England Biolabs).
(§2) Two-electrode voltage–clamp (TEVC) studies were performed in Xenopus oocytes. All animal use conformed to the Guide for the Care and Use of Laboratory Animals (NIH Publication 85–23), and all experiments using Xenopus toads were approved by the local ethics panels. Oocytes were stored at 17 °C in ND96 recording solution composed of (in mM): 96 NaCl, 2 KCl, 1.8 CaCl2, 1 MgCl2, 5 HEPES (pH 7.5 adjusted with NaOH and HCl), supplemented with Na-pyruvate (275 mg L^–1), theophylline (90 mg L^–1) and gentamicin (50 mg L^–1). Oocytes were injected with 1 ng mRNA for WT or mutant channels, and were incubated for 24–48 h at 17 °C. Two-electrode voltage clamp recordings were then performed as previously described[42],[43]. For macroscopic patch–clamp measurements, oocytes were obtained as described above incubated at 17 °C in a solution containing (mM): 54 NaCl, 30 KCl, 2.4 NaHCO3, 0.82 MgSO4 ×7 H2O, 0.41 CaCl2, 0.33 Ca(NO3)2 ×4 H2O and 7.5 TRIS (pH 7.4 adjusted with NaOH and HCl) for 1–4 days before use. Excised patch recordings in inside-out configuration conditions were performed at room temperature. Patch pipettes were made from thick-walled borosilicate glass GB 200TF-8P (Science Products), had resistances of 0.2–0.5 MΩ (tip diameter, 10–25 µm) and filled with a pipette solution (in mM): 120 KCl, 10 HEPES and 3.6 CaCl2 (pH 7.4 adjusted with KOH and HCl). Intracellular bath solutions and compounds were applied to the cytoplasmic side of excised patches for the various K^+ channels through a gravity flow multi-barrel pipette system. The intracellular solution had the following composition (in mM): 120 KCl, 10 HEPES, 2 EGTA and 1 pyrophosphate (pH adjusted with KOH and HCl). Currents were recorded with an EPC10 amplifier (HEKA Electronics) and sampled at 10 kHz or higher, with filtering set to 3 kHz (–3 dB) or higher, as appropriate for sampling rate. For measurements of GPCR activation, whole-cell currents were recorded for THIK-1 in transiently transfected HEK-293 cells. Cells were stimulated by a ramp protocol between −100 and +60 mV (holding potential, −80 mV). The pipette solution was composed of (in mM): 140 KCl, 2 MgCl2, 1 CaCl2, 2.5 EGTA and 10 HEPES (pH 7.3 adjusted with KOH and HCl). The extracellular bath solution had the following composition (in mM): 135 NaCl, 5 KCl, 2 MgCl2, 2 CaCl2, 10 glucose and 10 HEPES pH (pH 7.3 adjusted with NaOH and HCl). Oxotremorine M (Oxo-M) was added to extracellular bath solution to obtain the final concentration. Single-channel currents were recorded with an Axopatch 200B amplifier through a Digidata 1440A digitizer (Molecular Devices). Data were filtered at 2 kHz and recorded at a 200-kHz sampling rate with the program Clampex (Molecular Devices). Pipette solution and bath solution for cell-attached recordings contained (in mM): 140 KCl, 2 MgCl2, 1 CaCl2 and 10 HEPES (pH 7.4 adjusted with KOH and HCl). For inside-out recordings, the bath solution contained (in mM): 140 KCl, 2 MgCl2, 1 CaCl2 and 10 HEPES (pH 7.2 adjusted with KOH and HCl). All experiments were conducted at room temperature. […]

Another assay deals with T2, THIK-1 V269A (Homo sapiens, UniProt Q9HB14, V269A).
T2 construct: expressed in transfected cells; host or cells: Xenopus oocytes (mRNA injection)
T2 sequence (Q9HB14 1-408 V269A): T1 sequence (Q9HB14 1-408 T110A) with A110T, V269A
Nature of the assay: Inside-out excised patch recordings, oocytes, THIK-1 V269A mutant. In kind it is cell-based. Conditions: for IC50: read-out: TPenA IC50.
Source text: as §1, §2

For orientation: IC50 means the point on the concentration scale where inhibition reaches its midpoint. On to `CCCCC[N+](CCCCC)(CCCCC)CCCCC` [TPenA, tetrapentylammonium], for which the Normalized currents at THIK-1 T110A (THIK-1 T110A, 15.6 µM TPenA) came out at 1.00; at THIK-1 T110A (THIK-1 T110A, 62.5 µM TPenA) it was 0.95; at THIK-1 T110A (THIK-1 T110A, 250 µM TPenA), 0.81; at THIK-1 T110A (THIK-1 T110A, 1000 µM TPenA), 0.57; on THIK-1 T110A (THIK-1 T110A, 4000 µM TPenA), 0.28; on THIK-1 V269A (THIK-1 V269A, 1 µM TPenA) it was 1.00. The Normalized currents is reported as 0.97 on THIK-1 V269A (THIK-1 V269A, 4 µM TPenA); 0.93 on THIK-1 V269A (THIK-1 V269A, 15.6 µM TPenA); 0.87 on THIK-1 V269A (THIK-1 V269A, 62.5 µM TPenA); 0.78 at THIK-1 V269A (THIK-1 V269A, 250 µM TPenA); 0.65 at THIK-1 V269A (THIK-1 V269A, 1000 µM TPenA); 0.45 at THIK-1 V269A (THIK-1 V269A, 4000 µM TPenA). For the same compound, the IC50 is 1280 µM at THIK-1 T110A (TPenA IC50, T110A mutant); 583 µM and 1570 µM and 596 µM and 1530 µM and 2420 µM and 1850 µM and 1140 µM and 1600 µM and 1210 µM and 982 µM and 651 µM against THIK-1 T110A (TPenA IC50, THIK-1 T110A, individual recordings); 1280 µM at THIK-1 T110A (TPenA IC50, THIK-1 T110A, mean); 2200 µM at THIK-1 V269A (THIK-1 V269A, mean); 2200 µM on THIK-1 V269A (V269A mutant).

By inhibition is commonly meant the percentage by which the read-out fell short of the control. High values mean strong suppression, low ones little suppression. For `FC(F)(F)C(Cl)Br` (centres unmarked) [halothane], the “Inhibition (%)” value at THIK-1 T110A (3.0 mM halothane, T110A, individual recordings) is 71.250% and 68.098% and 66.319% and 64.813% and 55.507% and 41.148% and 63.240% and 65.945% and 75.271%. On THIK-1 T110A (halothane 0.152 mM, THIK-1 T110A), this compound came in with an inhibition at 152 µM of 9.23%. The compound also displayed an inhibition at 304 µM against THIK-1 T110A (halothane 0.304 mM, THIK-1 T110A) of 14.1%. At THIK-1 T110A (halothane 1.52 mM, THIK-1 T110A), the inhibition at 1520 µM is 45.3%. On THIK-1 T110A (halothane 3.04 mM, THIK-1 T110A), this compound gave an inhibition at 3040 µM of 63.5%. Further, at THIK-1 T110A (halothane 15.2 mM, THIK-1 T110A), testing at 15200 µM gave an inhibition of 89.5%.
